The subject of assay [1] is Beet Armyworm (Spodoptera exigua, LAPHEG). Nature of the assay: Bioassays on Beet Armyworm (BAW), 128-well diet tray assay. The settings on record: Spodoptera exigua. It counts as in vivo. The method, then:
(§1) Certain molecules disclosed in this document were tested against BAW and CL using procedures described in the following examples. In the reporting of the results, the “BAW & CL Rating Table” was used (See Table Section).
Bioassays on BAW were conducted using a 128-well diet tray assay. One to five second instar BAW larvae were placed in each well (3 mL) of the diet tray that had been previously filled with 1 mL of artificial diet to which 50 μg/cm^2 of the test molecule (dissolved in 50 μL of 90:10 acetone-water mixture) had been applied (to each of eight wells) and then allowed to dry. Trays were covered with a clear self-adhesive cover, vented to allow gas exchange, and held at 25° C., 14:10 light-dark for five to seven days. Percent mortality was recorded for the larvae in each well; activity in the eight wells was then averaged. The results are indicated in the table entitled “Table ABC: Biological Results” (See Table Section).

Assay [2] deals with Cabbage Looper (Trichoplusia ni, TRIPNI). Description: Bioassays on Cabbage Looper (CL), 128-well diet tray assay. In kind it is in vivo. The settings on record: Trichoplusia ni. The method, then:
as §1
Bioassays on CL were conducted using a 128-well diet tray assay. One to five second instar CL larvae were placed in each well (3 mL) of the diet tray that had been previously filled with 1 mL of artificial diet to which 50 μg/cm^2 of the test molecule (dissolved in 50 μL of 90:10 acetone-water mixture) had been applied (to each of eight wells) and then allowed to dry. Trays were covered with a clear self-adhesive cover, vented to allow gas exchange, and held at 25° C., 14:10 light-dark for five to seven days. Percent mortality was recorded for the larvae in each well; activity in the eight wells was then averaged. The results are indicated in the table entitled “Table ABC: Biological Results” (See Table Section).

Setting [3] is: Cabbage Looper, Table ABC / ABC-DP rating, read-out: CL rating.
Setting [4] is: Beet Armyworm, rating class, read-out: BAW.
The mark [5] stands for this setting: Cabbage Looper, rating class, read-out: CL.
Setting [6] is: Table ABC: Biological Results, species BAW, read-out: BAW.
Setting [7] is: Table ABC: Biological Results, species CL, read-out: CL.

Where two headings read alike, the source gives them in different places.

As for `O=C(NCCCCl)c1cc(NC(=O)[C@H]2[C@H](c3ccc(F)c(Cl)c3)C2(Cl)Cl)cc(Cl)c1F` (relative stereo) [F2048, trans-3-Chloro-N-(3-chloropropyl)-5-(2,2-dichloro-3-(3-chloro-4-fluorophenyl)cyclopropane-1-carboxamido)-2-fluorobenzamide], the pest or weed control at 50 µg/cm2 lay in the range of 50 to 100% in assay [1] (Beet Armyworm, Table ABC / ABC-DP rating, read-out: BAW rating) and 50 to 100% in assay [2] (setting [3]). As to `Cc1cc(NC(=O)[C@H]2[C@H](c3ccc(F)c(C(F)(F)F)c3)C2(Cl)Cl)cc(C(=O)Nc2ccc(F)c(N)c2F)c1Cl` [F1458, N-(3-Amino-2,4-difluorophenyl)-2-chloro-5-((1R,3R)-2,2-dichloro-3-(4-fluoro-3-(trifluoromethyl)phenyl)cyclopropane-1-carboxamido)-3-methylbenzamide], the pest or weed control at 50 µg/cm2 in assay [1] (setting [4]) and in assay [2] (setting [5]) was 50 to 100% each time. With `Cc1cc(NC(=O)[C@H]2[C@H](c3ccc(F)c(Cl)c3)C2(Cl)Cl)cc(C(=O)Nc2ccc(F)c(N)c2F)c1Cl` (relative stereo) [F1222, trans-N-(3-Amino-2,4-difluorophenyl)-2-chloro-5-(2,2-dichloro-3-(3-chloro-4-fluorophenyl)cyclopropane-1-carboxamido)-3-methylbenzamide], the pest or weed control at 50 µg/cm2 in assay [1] (setting [6]) and in assay [2] (setting [7]) was 50 to 100% in each case. Consider `Nc1cc(F)c(NC(=O)c2cc(NC(=O)[C@H]3[C@H](c4ccc(Cl)c(Cl)c4)C3(Cl)Cl)ccc2Cl)c(F)c1` [F1028, N-(4-Amino-2,6-difluorophenyl)-2-chloro-5-((1R,3R)-2,2-dichloro-3-(3,4-dichlorophenyl)cyclopropane-1-carboxamido)benzamide], for which the pest or weed control at 50 µg/cm2 in assay [1] (setting [6]) and in assay [2] (setting [7]) was 50 to 100% in each case. As to `CC(=O)Nc1c(F)ccc(NC(=O)c2cc(NC(=O)[C@H]3[C@H](c4ccc(F)c(C(F)(F)F)c4)C3(Cl)Cl)ccc2Cl)c1F` [F1231, N-(3-Acetamido-2,4-difluorophenyl)-2-chloro-5-((1R,3R)-2,2-dichloro-3-(4-fluoro-3-(trifluoromethyl)phenyl)cyclopropane-1-carboxamido)benzamide], the pest or weed control at 50 µg/cm2 in assay [1] (setting [6]) and in assay [2] (setting [7]) was 50 to 100% in each case. Turning to `O=C(Nc1ccc(F)cc1NC(=O)C(Cl)(Cl)Cl)c1cc(NC(=O)C2C(c3ccc(Cl)c(Cl)c3)C2(Cl)Cl)ccc1Cl` (stereo not drawn) [F1126], the pest or weed control at 50 µg/cm2 in assay [1] (setting [6]) and in assay [2] (setting [7]) was 50 to 100% each time.

For the compound `CC(=O)Nc1c(F)ccc(NC(=O)c2cc(NC(=O)[C@H]3[C@H](c4ccc(F)c(Br)c4)C3(Cl)Cl)ccc2Cl)c1F` [F1716, N-(3-Acetamido-2,4-difluorophenyl)-5-((1R,3R)-3-(3-bromo-4-fluorophenyl)-2,2-dichlorocyclopropane-1-carboxamido)-2-chlorobenzamide], the pest or weed control at 50 µg/cm2 in assay [1] (setting [4]) and in assay [2] (setting [5]) was 50 to 100% throughout.

With `O=C(Nc1ccc(F)c(NC(=O)C2CCCS2)c1F)c1cc(NC(=O)[C@H]2[C@H](c3ccc(F)c(C(F)(F)F)c3)C2(Cl)Cl)ccc1Cl` (stereo partly drawn) [F1721, N-(3-(2-Chloro-5-((1R,3R)-2,2-dichloro-3-(4-fluoro-3-(trifluoromethyl)phenyl)cyclopropane-1-carboxamido)benzamido)-2,6-difluorophenyl)tetrahydrothiophene-2-carboxamide], the pest or weed control at 50 µg/cm2 in assay [1] (setting [4]) and in assay [2] (setting [5]) was 50 to 100% each time. Regarding `Cc1c(F)c(NC(=O)c2cc(NC(=O)[C@H]3[C@H](c4ccc(F)c(C(F)(F)F)c4)C3(Cl)Cl)ccc2Cl)cc(N(C(=O)OC(C)(C)C)C(=O)OC(C)(C)C)c1F` [F1670, tert-Butyl N-tert-butoxycarbonyl-N-[5-[[2-chloro-5-[[(1R,3R)-2,2-dichloro-3-[4-fluoro-3-(trifluoromethyl)phenyl]cyclopropanecarbonyl]amino]benzoyl]amino]-2,4-difluoro-3-methyl-phenyl]carbamate], the pest or weed control at 50 µg/cm2 in assay [1] (setting [4]) is 0 to 50%.

As to `COc1c(F)cc(NC(=O)[C@H]2[C@H](c3ccc(F)c(Cl)c3)C2(Cl)Cl)cc1C(=O)Nc1ccccc1` (relative stereo) [F1213, trans-5-(2,2-Dichloro-3-(3-chloro-4-fluorophenyl)cyclopropane-1-carboxamido)-3-fluoro-2-methoxy-N-phenylbenzamide], the pest or weed control at 50 µg/cm2 in assay [2] (setting [7]) was in the range of 50 to 100%. On the same count and under the same terms, as for `CC(C)(C)OC(=O)N(C(=O)OC(C)(C)C)c1c(F)ccc(NC(=O)c2cc(NC(=O)[C@H]3[C@H](c4ccc(F)c(Cl)c4)C3(Cl)Cl)cc(Cl)c2F)c1F` (relative stereo) [F1198, trans-tert-Butyl-N-tert-butoxycarbonyl-N-[3-[[3-chloro-5-[[2,2-dichloro-3-(3-chloro-4-fluorophenyl)cyclopropanecarbonyl]amino]-2-fluorobenzoyl]amino]-2,6-difluorophenyl]carbamate], the figure is 0 to 50%; as for `CC(C)(C)OC(=O)N(C(=O)OC(C)(C)C)c1c(F)ccc(NC(=O)c2c(Cl)ccc(NC(=O)[C@H]3[C@H](c4ccc(F)c(Cl)c4)C3(Cl)Cl)c2Cl)c1F` (relative stereo) [F1107, trans-tert-Butyl-N-tert-butoxycarbonyl-N-[3-[[2,6-dichloro-3-[[2,2-dichloro-3-(3-chloro-4-fluorophenyl)cyclopropanecarbonyl]amino]benzoyl]amino]-2,6-difluoro-phenyl]carbamate], 0 to 50%; as for `CC(=O)Oc1c(F)ccc(NC(=O)c2cc(NC(=O)[C@H]3[C@H](c4cc(Cl)cc(Cl)c4)C3(Cl)Cl)ccc2Cl)c1F` (relative stereo) [F1193, trans-3-(2-Chloro-5-(2,2-dichloro-3-(3,5-dichlorophenyl)cyclopropane-1-carboxamido)benzamido)-2,6-difluorophenyl acetate], 50 to 100%. As for `O=C(Nc1cc(Cl)c(O)c(Cl)c1)c1cc(NC(=O)[C@H]2[C@H](c3cc(Cl)cc(Cl)c3)C2(Cl)Cl)ccc1Cl` (relative stereo) [F1360, trans-2-Chloro-5-(2,2-dichloro-3-(3,5-dichlorophenyl)cyclopropane-1-carboxamido)-N-(3,5-dichloro-4-hydroxyphenyl)benzamide], in assay [2] (setting [7]), the pest or weed control at 50 µg/cm2 was 50 to 100%. Still for that read-out and setting: with `CC(=O)OCCN(C(=O)OC(C)(C)C)c1ccc(NC(=O)c2cc(NC(=O)[C@H]3[C@H](c4cc(Cl)cc(Cl)c4)C3(Cl)Cl)ccc2Cl)c(C)c1` (relative stereo) [F1129, trans-2-((tert-butoxycarbonyl)(4-(2-chloro-5-(2,2-dichloro-3-(3,5-dichlorophenyl)cyclopropane-1-carboxamido)benzamido)-3-methylphenyl)amino)ethyl acetate] the figure was 50 to 100%. `CC(C)(C)OC(=O)N(C(=O)OC(C)(C)C)c1c(F)ccc(NC(=O)c2cc(NC(=O)[C@H]3[C@H](c4ccc(F)c(Cl)c4)C3(Cl)Cl)cc(F)c2Cl)c1F` (relative stereo) [F1155, trans-tert-Butyl-N-tert-butoxycarbonyl-N-[3-[[2-chloro-5-[[2,2-dichloro-3-(3-chloro-4-fluorophenyl)cyclopropanecarbonyl]amino]-3-fluorobenzoyl]amino]-2,6-difluorophenyl]carbamate]: the pest or weed control at 50 µg/cm2 in assay [1] (setting [6]) was in the range of 50 to 100%. With `Cc1cc(NC(=O)[C@H]2[C@H](c3ccc(F)c(Cl)c3)C2(Cl)Cl)cc(C(=O)Nc2ccc(F)c(N(C(=O)OC(C)(C)C)C(=O)OC(C)(C)C)c2F)c1F` (relative stereo) [F1138, trans-tert-Butyl-N-tert-butoxycarbonyl-N-[3-[[5-[[2,2-dichloro-3-(3-chloro-4-fluorophenyl)cyclopropanecarbonyl]amino]-2-fluoro-3-methylbenzoyl]amino]-2,6-difluorophenyl]carbamate], in assay [1] (setting [6]), the pest or weed control at 50 µg/cm2 lay within 0 to 50%. In the case of `CCOC(=O)C(F)(F)CNC(=O)c1cc(NC(=O)[C@H]2[C@H](c3cc(Cl)cc(Cl)c3)C2(Cl)Cl)ccc1Cl` (relative stereo) [F2076, trans-Ethyl 3-(2-chloro-5-(2,2-dichloro-3-(3,5-dichlorophenyl)cyclopropane-1-carboxamido)benzamido)-2,2-difluoropropanoate], the pest or weed control at 50 µg/cm2 in assay [2] (setting [3]) fell in the range of 50 to 100%.

Consider `COc1c(Cl)cc(NC(=O)[C@H]2[C@H](c3ccc(F)c(Cl)c3)C2(Cl)Cl)cc1C(=O)Nc1ccc(F)c(N(C(=O)OC(C)(C)C)C(=O)OC(C)(C)C)c1F` (relative stereo) [F1237, trans-tert-Butyl-N-tert-butoxycarbonyl-N-[3-[[3-chloro-5-[[2,2-dichloro-3-(3-chloro-4-fluorophenyl)cyclopropanecarbonyl]amino]-2-methoxybenzoyl]amino]-2,6-difluorophenyl]carbamate], for which, in assay [1] (setting [6]), the pest or weed control at 50 µg/cm2 fell in the range of 0 to 50%.

These data come from patent US20250228239A1, “MOLECULES HAVING PESTICIDAL UTILITY, AND INTERMEDIATES, COMPOSITIONS, AND PROCESSES, RELATED THERETO” (priority 2024, published 2025).
